Among the data in ChEMBL document CHEMBL5523686, “Medicinal chemistry perspectives on the development of piperazine-containing HIV-1 inhibitors” (Bioorg Med Chem, 2024) are IC50, EC50 and solubility values, retold here.

Data set [1] has as its system Human immunodeficiency virus 1. Kind of data set: Antiviral activity against HIV-1 3B infected in human MT4 cells assessed as inhibition of viral replication incubated for 5 days by MTT assay. The format is functional, organism-based. Conditions: Human immunodeficiency virus 1, 3B, MT4, 120 h. Background: Tetrazolium dyes change colour on reduction, which living cells bring about.

The test system of data set [2] is Human immunodeficiency virus 2. Kind of data set: Antiviral activity against HIV-2 ROD infected in human MT4 cells assessed as inhibition of viral replication measured after 5 days by MTT spectrophotometric assay. The class given is functional, organism-based. The note with it: Human immunodeficiency virus 2, ROD, MT4, 120 h.
The test system of data set [3] is Human immunodeficiency virus 1. Kind of data set: Antiviral activity against HIV-1 IIIB infected in human MT4 cells assessed as inhibition of viral replication measured after 5 days by MTT spectrophotometric assay. The note with it: Human immunodeficiency virus 1, IIIB, MT4, 120 h. The format is functional, organism-based.
Data set [4] deals with Human immunodeficiency virus 1. Put plainly: Antiviral activity against wild type HIV1 IIIB infected in human MT4 cells assessed as inhibition of viral replication incubated for 3 to 5 days by MTT analysis. The format is functional, organism-based. The note with it: Human immunodeficiency virus 1, IIIB.
Data set [5] can be described thus: Aqueous solubility of compound at pH 7. The class given is physicochemical.
Data set [6] has as its system Human immunodeficiency virus 1. Put plainly: Antiviral activity against HIV1 Env pseudotyped virus infected in human HEK293T cells assessed as inhibition of viral growth incubated for 72 hrs by luciferase assay. The class given is functional, organism-based. The note with it: Human immunodeficiency virus 1, HEK-293T.
Data set [7] deals with Human immunodeficiency virus 1. Put plainly: Antiviral activity against HIV1 IIIB infected in human MT4 cells assessed as inhibition of viral replication incubated for 3 to 7 days by MTT analysis. The format is functional, organism-based. Conditions: Human immunodeficiency virus 1, IIIB.

In brackets after ≈: the same amount, converted by molar mass. A value given as a limit tells only on which side of the number the result lay.

Take `O=C1Nc2ccc(Cl)cc2[C@@](C#CC2CC2)(C(F)(F)F)N1`: the IC50 (as a rule, the concentration needed to halve the response being measured) in data set [1] came to 813 nM; in data set [2] it was 2.22 µg/mL (≈ 7.05 µM); in data set [3], 2.22 µg/mL (≈ 7.05 µM). Regarding `Cc1cc(C#N)cc(C)c1Oc1ccnc(Nc2ccc(N3CCN(S(C)(=O)=O)CC3)nc2)n1`, the EC50 (in general, the concentration that produces a half-maximal response) in data set [4] was 2 nM. In the case of `Cc1cc(C#N)cc(C)c1Oc1ccnc(Nc2ccc(N3CCN(S(C)(=O)=O)CC3)c(C#N)c2)n1`, in data set [4], the EC50 is 1 nM. Also, in data set [5], the concentration in solution (solubility) came to 13.5 µg/mL (≈ 26.7 µM). With `COc1cnc(-n2cnc(C)n2)c2[nH]cc(C(=O)C(=O)N3CC(C)N(C(=O)c4ccccc4)C(C)C3)c12` (stereo not drawn), in data set [6], the IC50 is 0.14 nM. As to `Cn1c(N2CCNCC2)c(/N=N/c2ccc(Cl)cc2)c(N)nc1=O`, in data set [7], the 50% effective concentration (EC50) is greater than 3030 nM.
